PMC11280390, “Synthesis of Nitrostyrylthiazolidine-2,4-dione Derivatives Displaying Antileishmanial Potential” (Pharmaceuticals, 2024)
≈ marks a conversion by molar mass, not a printed value. Where “and” joins values, the source holds several entries; their conditions need not be identical. Equal entries are not always repeated. Where two headings read alike, the source gives them in different places.

Columns and labels:
[1] = tested on: L. donovani promastigotes overexpressing NTR2; assay: microbe, parasite or virus in culture; assay type: cell-based; conditions: Leishmania donovani, read-out: EC50 Values, NTR2 OE
Procedure: (§1) EC50 values were determined as previously described. Nifurtimox was used as a positive control for activation via NTR1 [38] while delamanid was used as a positive control for activation via NTR2 [39].

[2] = tested on: L. donovani promastigotes overexpressing NTR1; assay: microbe, parasite or virus in culture; assay type: cell-based; conditions: Leishmania donovani, read-out: EC50 Values, NTR1 OE
Procedure: as §1

[3] = Lipophilicity by Chromatographic Hydrophobicity Index (CHI); assay type: physicochemical; conditions: pH 7.4, CHI; read-out: CHI logD7.4
Procedure: B: acetonitrile, at a flow rate of 0.300 mL/min and 0.5-µL injections. The validity of the CHI versus retention time was established on a reference mixture containing theophylline, phenyltetrazole, benzimidazole, acetophenone, propiophenone, butyrophenone and valerophenone.

THP-1 cell line = assay: In vitro cytotoxicity on the human monocyte THP-1 cell line (MTT, 72 h); assay type: cell-based; conditions: THP-1 CC50 / L. infantum promastigote EC50
Procedure: (§2) The undifferentiated THP1 human monocyte cells (acute monocytic leukemia cell line purchased from ATCC, ref TIB-202) were routinely grown in RPMI 1640 medium (Life Technologies, Saint-Aubin, France) supplemented with 10% FCS (Life Technologies, Saint-Aubin, France), 100 U/mL penicillin, 100 µg/mL streptomycin and 2 mM L-glutamine at 37 °C, 5% CO2. The culture was maintained between 3.10^5 and 8.10^5 cells/mL. […] Wells were washed with RPMI and 100 µL of fresh complete medium was added. […] Then, 100 µL of MTT solution (0.5 mg/mL in medium) was added to each well. Cells were incubated for 2 h at 37 °C. […] Plates were shaken vigorously (700 rpm) for 10 min. […] (Palo Alto, CA, USA).

[4] = as above; assay type: cell-based; conditions: human; THP-1, 72 h, MTT
Procedure: as §2

[5] = Aqueous solubility in PBS by shake-flask method; assay type: physicochemical; conditions: 25 °C, pH 7.4, aqueous buffer, thermodynamic from solid, PBS pH 7.4, 25 °C
Procedure: Briefly, an excess of compound (approx. 2 mg) was stirred in PBS (0.5 mL, 0.15 M, pH 7.4) at 25 °C for 72 h. A 100 µL sample was drawn, any excess material removed by centrifugation, and diluted tenfold with methanol/water 1:1 before HPLC-UV quantification using a pre-established calibration curve (PLRP-S column (Agilent), 3 µm particle size, 100 A porosity, 50 × 2.1 mm internal dimensions). Eluent: isocratic acetonitrile/water/formic acid 80:20:0.1, 0.4 mL/min, detection at 320 nm, 2-µL injections).

[6] = In vitro cytotoxicity on the human hepatic HepG2 cell line (MTT, 72 h); conditions: human, HepG2 cells (hepatocarcinoma cell line, ATCC HB-8065), HepG2 Cytotoxicity CC50, HepG2, 72 h, MTT
Procedure: (§3) HepG2 cell line (hepatocarcinoma cell line purchased from ATCC, ref HB-8065) was maintained at 37 °C, 5% CO2 with 90% humidity in MEM supplemented with 10% fetal bovine serum, 1% L-glutamine (200 mM) and penicillin (100 U/mL)/streptomycin ([…]) (complete MEM medium). The tested molecules’ cytotoxicity was assessed according to the method of Mosmann with slight modifications. Briefly, 5 × 10^3 cells in 100 μL of complete medium were inoculated into each well of 96-well plates and incubated at 37 °C in a humidified 5% CO2. After 24 h incubation, 100 μL of medium with various product concentrations dissolved in DMSO (final concentration less than 0.5% v/v) were added and the plates were incubated for 72 h at 37 °C. Triplicate assays were performed for each sample. Each plate well was then microscope-examined to detect possible precipitate formation before the medium was aspirated from the wells. Then, 100 μL of MTT (3-(4,5-dimethyl-2-thiazolyl)-2,5-diphenyl-2H-tetrazolium bromide) solution (0.5 mg/mL in medium without FCS) were then added to each well. Cells were incubated for 2 h at 37 °C, following which the MTT solution was removed and DMSO (100 μL) was added to dissolve the resulting blue formazan crystals. Plates were shaken vigorously (700 rpm) for 10 min. The absorbance was measured at 570 nm with 630 nm as reference wavelength using a TECAN Infinite F-200 spectrophotometer (Tecan Trading AG, Männedorf, Switzerland). DMSO was used as blank and doxorubicin (purchased from Sigma Aldrich, Saint Louis, MI, USA) as positive control. Cell viability was calculated as a percentage of control (cells incubated without compound). […] CC50 values represent the mean value calculated from three separate experiments.

HepG2 cell line = assay: as above
Procedure: as §3

[7] = tested on: wild-type L. donovani (LdBOB) promastigotes; assay: Antileishmanial activity against wild-type L. donovani promastigotes; assay type: cell-based; conditions: Leishmania donovani, read-out: EC50 Values, WT
Procedure: as §1

[8] = tested on: Leishmania infantum promastigotes; assay: In vitro antileishmanial activity on L. infantum promastigotes (MTT, 72 h); assay type: cell-based; conditions: Leishmania infantum, L. infantum promastigotes, MTT, read-out: Anti-L. infantum Promastigote Activity EC50
Procedure: Luciferase-expressing Leishmania infantum was kindly provided by Professor Thierry Lang of the Institut Pasteur. L. infantum promastigotes were routinely grown at 27 °C in Schneider’s Drosophila Medium (Dominique […] SAS, Bernolsheim, France) supplemented with 10% fetal calf serum, 2% human urine, sodium pyruvate 0.04 mM, hemin 0.1 µg/mL, HEPES 5 mM, streptomycin 100 µg/mL, penicillin 100 U/mL, L-glutamine 2 mM (culture medium). The in vitro evaluation of the antileishmanial activity of the tested compound on L. infantum promastigotes forms was assessed according to the Mosmann protocol with slight modifications. […] Appropriate controls treated with DMSO, Miltefosine, Amphotericin B and Fexinidazole sulfone (reference drugs purchased from Sigma-Aldrich, Saint-Louis, MO, USA) were added to each set of experiments. The plates were incubated at 27 °C for 72 h, Then, each plate-well was microscope-analyzed to detect any precipitate formation. Afterward, 20 µL of MTT (3-(4,5-dimethylthiazol-2-yl)-2,5-diphenyltetrazolium bromide) (Sigma-Aldrich, Saint-Louis, MI, USA) solution (5 mg/mL in PBS) were added to each well and incubated at 27 °C for 4 h. The reaction was then stopped by the addition of 100 µL of 10% sodium dodecyl sulfate—50% isopropanol. Plates were shaken vigorously at 400 rpm for 10 min. […] EC50 values represent the mean value calculated from at least three separate experiments.

N#CCN1C(=O)S/C(=C\c2cccc([N+](=O)[O-])c2)C1=O [Compound 14c, (Z)-2-(5-(3-Nitrobenzylidene)thiazolidine-2,4-dion-3-yl)acetonitrile]
EC50 [1]: 18.5 µM | EC50 [2]: 3.78 ± 0.313 µM | chromatographic logD [3]: 2.85 | Selectivity index (THP-1) (THP-1 cell line): 17 | CC50 at 72 h [4]: 121 ± 9 µM | solubility at 72 h ([5]; read-out: PBS Solubility (log S) (converted)): 15.8 µM (≈ 4.58 µg/mL) | solubility at 72 h ([5]; read-out: PBS solubility): 16 µM (≈ 4.63 µg/mL) | CC50 at 72 h [6]: 101 µM | Selectivity INDEX (SI = CC50/EC50) (HepG2 cell line; HepG2 CC50 / L. infantum promastigote EC50): 14 and 14.4 | CC50 (HepG2 cell line; read-out: HepG2 Cytotoxicity CC50, HepG2, 72 h, MTT): 101 ± 19.3 µM | melting point: 173 to 175 °C | EC50 [7]: 22.1 µM | EC50 [8]: 7 ± 2.96 µM
